Experimental findings from US20240343694A1, “PYRIMIDINE DERIVATIVE, METHOD FOR PREPARING SAME, AND PHARMACEUTICAL COMPOSITION FOR PREVENTING OR TREATING CANCER COMPRISING SAME AS ACTIVE INGREDIENT” (KOREA RESERARCH INSTITUTE OF CHEMICAL TECHNOLOGY, priority 2021, published 2024) are described below.

For one assay, the target named is EGFR del19 (Homo sapiens (Human), UniProt P00533, DEL746-750). Briefly: HTRF inhibitory activity against EGFR mutant enzyme (EGFR del19). In kind it is biochemical. To be noted: recombinant enzyme, 37° C. for 2 hours. Summed up:
(§1)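 Recombinant EGFR del19 or A763_Y764insFHEA was premixed with compound in 50 mM Tris pH 7.5 with 7.5 mM MgCl2 and 1 mM DTT. ATP (50 mM as printed) and biotin-peptide (0.5 mM) were added and reacted 2 h at 37 °C. The HTRF 665/615 read used streptavidin-XL665 and Eu anti-phosphotyrosine. IC50 was fitted from 7 concentrations.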
In general terms: Time-resolved FRET reads energy transfer from a long-lived donor to a nearby acceptor.

For the next assay, the target named is EGFR A763_Y764insFHEA (Homo sapiens (Human), UniProt P00533, INS763FHEA). Put plainly: HTRF inhibitory activity against EGFR mutant enzyme (EGFR A763_Y764insFHEA). In kind it is biochemical. To be noted: recombinant enzyme, 37° C. for 2 hours. Summed up: as §1
Chain of EGFR A763_Y764insFHEA (P00533 other isoform, or with tags, fused parts or gaps del 1-694/ins FHEA behind 763 limits assumed): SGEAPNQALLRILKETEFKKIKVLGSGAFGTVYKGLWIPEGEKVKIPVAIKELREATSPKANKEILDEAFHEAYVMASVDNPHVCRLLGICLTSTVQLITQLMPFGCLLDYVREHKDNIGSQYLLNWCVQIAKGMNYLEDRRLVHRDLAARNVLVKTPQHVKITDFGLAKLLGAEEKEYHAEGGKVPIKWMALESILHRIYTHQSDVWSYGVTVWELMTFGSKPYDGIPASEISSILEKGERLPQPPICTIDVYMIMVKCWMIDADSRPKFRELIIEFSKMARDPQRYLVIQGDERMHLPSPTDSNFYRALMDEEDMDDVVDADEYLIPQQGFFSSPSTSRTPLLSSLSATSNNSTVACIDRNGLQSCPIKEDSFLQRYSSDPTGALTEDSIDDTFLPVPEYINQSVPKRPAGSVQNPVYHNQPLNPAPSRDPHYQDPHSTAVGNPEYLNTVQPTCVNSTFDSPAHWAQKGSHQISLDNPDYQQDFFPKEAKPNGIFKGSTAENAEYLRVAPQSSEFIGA
The next assay concerns the target HER2 A775_G776insYVMA (Homo sapiens (Human), UniProt P04626, INS775YVMA). Briefly: HTRF inhibitory activity against HER2 mutant enzyme. In kind it is biochemical. To be noted: recombinant enzyme, 37° C. for 2 hours. The method, boiled down: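 Recombinant HER2 A775_G776insYVMA preincubated with compound, then […] and biotinylated peptide ([…]) added; 2 h at 37 °C in Tris-HCl pH 7.5 buffer with MgCl2, DTT. HTRF detection (Eu anti-phosphotyrosine/streptavidin-XL665); IC50 from 7 concentrations.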

Assay [1] deals with Ba/F3 EGFR D770_N771insSVD. Briefly: Growth inhibition of Ba/F3 EGFR mutant cells (CellTiter-Glo). The assay is classed as cell-based. The following applies: Ba/F3 EGFR-D770-N771ins_SVD, 72 hours. As for the experimental part:
(§2) The activity of the compounds of the present invention against Ba/F3 EGFR V769_D770insASV and Ba/F3 EGFR D770_N771insSVD mutant cell lines was measured using the CellTiter-Glo system purchased from Promega as follows. CellTiter-Glo assay is a method to measure cell viability by monitoring ATP present in cells. Ba/F3 EGFR V769_D770insASV and Ba/F3 EGFR D770_N771insSVD mutant cell lines were purchased from Crown Biosciences. Ba/F3 EGFR V769_D770insASV and Ba/F3 EGFR D770_N771insSVD mutant cell lines were cultured in RPMI containing 10% FBS and 1% penicillin-streptomycin with 1 μg/mL of puromycin in a 5% CO2 incubator at 37° C.
(§3) The analysis of the ability of the compounds to inhibit the growth of EGFR mutant cells was performed according to the following method. 1,000 cells/100 μL were seeded in a 96-well cell culture plate, and 24 hours thereafter, the compounds represented by Formula 1 were treated with 0 μM, 0.01 μM, 0.03 μM, 0.1 μM, 0.3 μM, 1 μM, 3 μM, and 10 μM. After incubating for 72 hours, the plate treated with the compounds were left at room temperature for 30 minutes, 100 μL of a reagent was further added thereto, and then shaken at room temperature for 10 minutes. Finally, using equipment, the ratio of […] was measured to confirm the cell growth inhibition ability of the compounds. The measured values at 8 compound concentrations were analyzed using the Prism program (version 5.01, Graphpad Software, Inc.), and the IC50 (μM) values, which are measures of the compounds' inhibitory ability, were calculated.

The subject of assay [2] is Ba/F3 EGFR V769_D770insASV. The assay is described as above. In kind it is cell-based. The following applies: 72 hours. As to the method: as §2, §3
Assay [3] has as its system Ba/F3 HER2 A775_G776insYVMA. Briefly: Growth inhibition of Ba/F3 HER2 mutant cells (CellTiter-Glo). In kind it is cell-based. To be noted: Mus musculus, BaF3, 72 hours. As for the experimental part: as §2, with “HER2 A775_G776insYVMA” for “EGFR V769_D770insASV”, “HER2 G776delinsVC” for “EGFR D770_N771insSVD”, “a” for “a 5%”
as §3, with “HER2” for “EGFR”, “reacting” for “incubating”, “was” for “was further”

The test system of a further assay is Ba/F3 HER2 G776delinsVC. The description is as above. In kind it is cell-based. To be noted: Mus musculus, BaF3, 72 hours. As for the experimental part:
as §2, with “HER2 A775_G776insYVMA” for “EGFR V769_D770insASV”, “HER2 G776delinsVC” for “EGFR D770_N771insSVD”, “a” for “a 5%”
as §3, with “HER2” for “EGFR”, “reacting” for “incubating”, “was” for “was further”

A value given as a limit tells only on which side of the number the result lay.

Chain of EGFR del19 (P00533 other isoform, or with tags, fused parts or gaps del 1-668/del 746-750 limits assumed): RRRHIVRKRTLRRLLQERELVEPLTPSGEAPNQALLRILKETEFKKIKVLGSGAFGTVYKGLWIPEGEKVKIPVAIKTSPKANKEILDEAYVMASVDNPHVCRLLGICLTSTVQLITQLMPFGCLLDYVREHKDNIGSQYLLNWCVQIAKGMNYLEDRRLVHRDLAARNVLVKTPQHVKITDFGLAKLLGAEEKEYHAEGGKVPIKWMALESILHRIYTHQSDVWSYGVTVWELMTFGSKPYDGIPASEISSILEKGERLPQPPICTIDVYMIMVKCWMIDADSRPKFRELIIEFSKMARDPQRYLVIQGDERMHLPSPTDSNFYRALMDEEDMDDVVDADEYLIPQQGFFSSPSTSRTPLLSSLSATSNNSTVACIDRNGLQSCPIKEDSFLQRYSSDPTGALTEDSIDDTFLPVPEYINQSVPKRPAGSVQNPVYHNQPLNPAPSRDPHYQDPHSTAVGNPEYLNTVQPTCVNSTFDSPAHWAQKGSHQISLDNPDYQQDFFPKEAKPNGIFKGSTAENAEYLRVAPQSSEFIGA
Chain of HER2 A775_G776insYVMA (P04626 other isoform, or with tags, fused parts or gaps del 1-675/ins YVMA behind 775 limits assumed): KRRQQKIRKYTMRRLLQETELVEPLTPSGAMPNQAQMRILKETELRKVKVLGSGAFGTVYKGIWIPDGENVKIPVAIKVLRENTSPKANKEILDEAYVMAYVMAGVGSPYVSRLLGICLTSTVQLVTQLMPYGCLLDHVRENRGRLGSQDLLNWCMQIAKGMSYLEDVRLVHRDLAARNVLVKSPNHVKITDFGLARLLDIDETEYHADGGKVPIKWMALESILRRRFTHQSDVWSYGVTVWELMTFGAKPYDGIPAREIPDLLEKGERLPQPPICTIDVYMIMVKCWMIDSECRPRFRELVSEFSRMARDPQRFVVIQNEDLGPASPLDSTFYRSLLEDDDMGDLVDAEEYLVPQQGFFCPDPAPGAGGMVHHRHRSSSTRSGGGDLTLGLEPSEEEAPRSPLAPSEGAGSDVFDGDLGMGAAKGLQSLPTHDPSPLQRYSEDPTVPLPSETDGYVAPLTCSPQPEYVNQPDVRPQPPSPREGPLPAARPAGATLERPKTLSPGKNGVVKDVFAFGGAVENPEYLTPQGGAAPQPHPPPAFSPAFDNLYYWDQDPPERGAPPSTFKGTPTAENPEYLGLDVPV

As usually defined, the IC50 is the concentration that gives 50% inhibition. For the molecule `C=CC(=O)Nc1cc(Nc2ncc(Cl)c(Nc3ccccc3NS(C)(=O)=O)n2)c(OC)cc1N(C)CCNC(C)C` [Example 24, N-(5-((5-chloro-4-((2-(methylsulfonamido)phenyl)amino)pyrimidin-2-yl)amino)-2-((2-(isopropylamino)ethyl)(methyl)amino)-4-methoxyphenyl)acrylamide], the IC50 on EGFR del19 was less than 1 nM; on EGFR A763_Y764insFHEA, 3 nM; at HER2 A775_G776insYVMA, 27 nM; in assay [1] it was greater than 100 nM; in assay [2] it was greater than 100 nM; in assay [3], greater than 100 nM. Also, in the assay with Ba/F3 HER2 G776delinsVC, the IC50 lay in the range of 10 to 30 nM.
In the case of `C=CC(=O)Nc1cc(Nc2ncc(Cl)c(Nc3ccccc3NS(C)(=O)=O)n2)c(OC)cc1N(C)CCNC` [Example 25, N-(5-((5-chloro-4-((2-(methylsulfonamido)phenyl)amino)pyrimidin-2-yl)amino)-4-methoxy-2-(methyl(2-(methylamino)ethyl)amino)phenyl)acrylamide], the IC50 on EGFR del19 is less than 1 nM; at EGFR A763_Y764insFHEA it was less than 1 nM; on HER2 A775_G776insYVMA, 6 nM; in assay [1], greater than 100 nM; in assay [2], greater than 100 nM; in assay [3] it was greater than 100 nM. In addition, the IC50 in the assay with Ba/F3 HER2 G776delinsVC was greater than 100 nM.
With `C=CC(=O)Nc1cc(Nc2ncc(Cl)c(Nc3ccccc3N(C)S(C)(=O)=O)n2)c(OC)cc1N(C)CCN(C)C` [Example 29, N-(5-((5-chloro-4-((2-(N-methylmethylsulfonamido)phenyl)amino)pyrimidin-2-yl)amino)-2-((2-(dimethylamino)ethyl)(methyl)amino)-4-methoxyphenyl)acrylamide], the IC50 at EGFR del19 was less than 1 nM; on EGFR A763_Y764insFHEA, less than 1 nM; on HER2 A775_G776insYVMA it was 5 nM; in assay [1], 10 to 30 nM; in assay [2] it was 10 to 30 nM; in assay [3] it was 50 to 100 nM. The molecule also had an IC50 with Ba/F3 HER2 G776delinsVC of 10 to 30 nM.
As to `C=CC(=O)Nc1cc(Nc2ncc(Cl)c(Nc3ccccc3N(C)S(=O)(=O)CC)n2)c(OC)cc1N(C)CCN(C)C` [Example 30, N-(5-((5-chloro-4-((2-(N-methylethylsulfonamido)phenyl)amino)pyrimidin-2-yl)amino)-2-((2-(dimethylamino)ethyl)(methyl)amino)-4-methoxyphenyl)acrylamide], the IC50 at EGFR del19 is less than 1 nM; on EGFR A763_Y764insFHEA it was less than 1 nM; on HER2 A775_G776insYVMA, 4 nM; in assay [1] it was 30 to 50 nM; in assay [2], less than 10 nM; in assay [3], 30 to 50 nM. Besides, the IC50 in the assay with Ba/F3 HER2 G776delinsVC was less than 10 nM.
Regarding `C=CC(=O)Nc1cc(Nc2ncc(Cl)c(Nc3ccccc3N(CC)S(C)(=O)=O)n2)c(OC)cc1N(C)CCN(C)C` [Example 31, N-(5-((5-chloro-4-((2-(N-ethylmethylsulfonamido)phenyl)amino)pyrimidin-2-yl)amino)-2-((2-(dimethylamino)ethyl)(methyl)amino)-4-methoxyphenyl)acrylamide], the IC50 at EGFR del19 was less than 1 nM; at EGFR A763_Y764insFHEA, less than 1 nM; at HER2 A775_G776insYVMA, 0.3 nM; in assay [1], 30 to 50 nM; in assay [2] it was less than 10 nM; in assay [3], less than 10 nM. Moreover, the IC50 with Ba/F3 HER2 G776delinsVC was less than 10 nM.
Take `C=CC(=O)Nc1cc(Nc2ncc(Cl)c(Nc3ccccc3N(C(C)C)S(C)(=O)=O)n2)c(OC)cc1N(C)CCN(C)C` [Example 32, N-(5-((5-chloro-4-((2-(N-isopropylmethylsulfonamido)phenyl)amino)pyrimidin-2-yl)amino)-2-((2-(dimethylamino)ethyl)(methyl)amino)-4-methoxyphenyl)acrylamide]: the IC50 is less than 1 nM on EGFR del19; 1 nM on EGFR A763_Y764insFHEA; 8 nM at HER2 A775_G776insYVMA; 30 to 50 nM in assay [1]; 30 to 50 nM in assay [2]; 30 to 50 nM in assay [3]. In the assay with Ba/F3 HER2 G776delinsVC, the IC50 was less than 10 nM.
With `C=CC(=O)Nc1cc(Nc2ncc(Cl)c(Nc3ccccc3N(CC)S(=O)(=O)CC)n2)c(OC)cc1N(C)CCN(C)C` [Example 33, N-(5-((5-chloro-4-((2-(N-ethylethylsulfonamido)phenyl)amino)pyrimidin-2-yl)amino)-2-((2-(dimethylamino)ethyl)(methyl)amino)-4-methoxyphenyl)acrylamide], the IC50 on EGFR del19 was less than 1 nM; at EGFR A763_Y764insFHEA, less than 1 nM; on HER2 A775_G776insYVMA it was 7 nM; in assay [1], 30 to 50 nM; in assay [2], less than 10 nM; in assay [3], 30 to 50 nM. This molecule also returned an IC50 in the assay with Ba/F3 HER2 G776delinsVC of less than 10 nM.
Consider `C=CC(=O)Nc1cc(Nc2ncc(Cl)c(Nc3cccc(Cl)c3N(C)S(C)(=O)=O)n2)c(OC)cc1N(C)CCN(C)C` [Example 35, N-(5-((5-chloro-4-((3-chloro-2-(N-methylmethylsulfonamido)phenyl)amino)pyrimidin-2-yl)amino)-2-((2-(dimethylamino)ethyl)(methyl)amino)-4-methoxyphenyl)acrylamide], for which the IC50 at EGFR del19 is less than 1 nM; on EGFR A763_Y764insFHEA, 3 nM; on HER2 A775_G776insYVMA, 27 nM; in assay [1] it was 30 to 50 nM; in assay [2] it was 30 to 50 nM; in assay [3] it was 50 to 100 nM. Further, the IC50 in the assay on Ba/F3 HER2 G776delinsVC is less than 10 nM.
On to `C=CC(=O)Nc1cc(Nc2ncc(Cl)c(Nc3cccc(C)c3NS(C)(=O)=O)n2)c(OC)cc1N(C)CCN(C)C` [Example 36, N-(5-((5-chloro-4-((3-methyl-2-(methylsulfonamido)phenyl)amino)pyrimidin-2-yl)amino)-2-((2-(dimethylamino)ethyl)(methyl)amino)-4-methoxyphenyl)acrylamide], for which the IC50 at EGFR del19 is less than 1 nM; on EGFR A763_Y764insFHEA it was 1 nM; on HER2 A775_G776insYVMA, 10 nM; in assay [1], 10 to 30 nM; in assay [2] it was 10 to 30 nM; in assay [3] it was 50 to 100 nM. This molecule gave an IC50 in the assay on Ba/F3 HER2 G776delinsVC of 10 to 30 nM.
In the case of `C=CC(=O)Nc1cc(Nc2ncc(Cl)c(Nc3cccc(C(C)C)c3N(C)S(C)(=O)=O)n2)c(OC)cc1N(C)CCN(C)C` [Example 37, N-(5-((5-chloro-4-((3-isopropyl-2-(N-methylmethylsulfonamido)phenyl)amino)pyrimidin-2-yl)amino)-2-((2-(dimethylamino)ethyl)(methyl)amino)-4-methoxyphenyl)acrylamide], the IC50 at EGFR del19 was less than 1 nM; at EGFR A763_Y764insFHEA, 2 nM; at HER2 A775_G776insYVMA, 26 nM; in assay [1] it was 50 to 100 nM; in assay [2], 50 to 100 nM; in assay [3] it was 50 to 100 nM. The molecule further registered an IC50 in the assay on Ba/F3 HER2 G776delinsVC of 30 to 50 nM.
